Where two headings read alike, the source gives them in different places.
Assays:
[1] = tested on: SARS-CoV-2 Omicron BA.2; design: species or system BALB/c mice; conditions: mouse, in vivo
[2] = tested on: Novel enterovirus D68 (EV-D68); type: cell-based; conditions: for CPE test per cell well: first experiment; for CPE test (virus replication in cell wells) / CPE test (virus replication in the cell wells): wells 1-10; for average inactivation efficiency against virus: 0.2 mM EGCG, EV-D68 virus, three experiments

With O=C(O[C@@H]1Cc2c(O)cc(O)cc2O[C@@H]1c1cc(O)c(O)c(O)c1)c1cc(O)c(O)c(O)c1 [EGCG, Epigallocatechin gallate] the “nucleic acid loads of SARS-CoV-2 Omicron BA.2 in lungs and turbinates” value [1] was “significantly reduced”, the “CPE test per cell well” value ([2]; 0.2 mM EGCG + EV-D68 virus, 1 minute, dilution factor 10^1, wells 1-10) was “+” and the “CPE test per cell well” value ([2]; 0.2 mM EGCG + EV-D68 virus, 1 minute, dilution factor 10^2, wells 1-10) was “+”. The “CPE test per cell well” value ([2]; 0.2 mM EGCG + EV-D68 virus, 1 minute, dilution factor 10^3, wells 1-10) was “+”, the “CPE test per cell well” value ([2]; 0.2 mM EGCG + EV-D68 virus, 1 minute, dilution factor 10^4, wells 1-10) was “+” and the “CPE test per cell well” value ([2]; 0.2 mM EGCG + EV-D68 virus, 1 minute, dilution factor 10^5, wells 1-10) was “+”. For the same compound, the “CPE test per cell well” value ([2]; 0.2 mM EGCG + EV-D68 virus, 1 minute, dilution factor 10^6, wells 1-10) was “− and +”, the “CPE test per cell well” value ([2]; 0.2 mM EGCG + EV-D68 virus, 1 minute, dilution factor 10^7, wells 1-10) was “− and +” and the “CPE test per cell well” value ([2]; 0.2 mM EGCG + EV-D68 virus, 1 minute, dilution factor 10^8, wells 1-10) was “−”. The “CPE test (virus replication in cell wells)” value ([2]; 0.2 mM EGCG + EV-D68 virus, co-incubated 5 minute, third experiment, dilution factor 10^1) was “+”, the “CPE test (virus replication in cell wells)” value ([2]; 0.2 mM EGCG + EV-D68 virus, co-incubated 5 minute, third experiment, dilution factor 10^2) was “+” and the “CPE test (virus replication in cell wells)” value ([2]; 0.2 mM EGCG + EV-D68 virus, co-incubated 5 minute, third experiment, dilution factor 10^3) was “+”. The “CPE test (virus replication in cell wells)” value ([2]; 0.2 mM EGCG + EV-D68 virus, co-incubated 5 minute, third experiment, dilution factor 10^4) was “+”, the “CPE test (virus replication in cell wells)” value ([2]; 0.2 mM EGCG + EV-D68 virus, co-incubated 5 minute, third experiment, dilution factor 10^5) was “+” and the “CPE test (virus replication in cell wells)” value ([2]; 0.2 mM EGCG + EV-D68 virus, co-incubated 5 minute, third experiment, dilution factor 10^6) was “+ and −”. For the same compound, the “CPE test (virus replication in cell wells)” value ([2]; 0.2 mM EGCG + EV-D68 virus, co-incubated 5 minute, third experiment, dilution factor 10^7) was “−”, the “CPE test (virus replication in cell wells)” value ([2]; 0.2 mM EGCG + EV-D68 virus, co-incubated 5 minute, third experiment, dilution factor 10^8) was “−” and the “CPE test (virus replication in cell wells)” value ([2]; 0.2 mM EGCG + virus, 1 minute, dilution factor 10^1, second experiment) was “+”. For the same compound, the “CPE test (virus replication in cell wells)” value ([2]; 0.2 mM EGCG + virus, 1 minute, dilution factor 10^1, third experiment) was “+”, the “CPE test (virus replication in cell wells)” value ([2]; 0.2 mM EGCG + virus, 1 minute, dilution factor 10^2, second experiment) was “+” and the “CPE test (virus replication in cell wells)” value ([2]; 0.2 mM EGCG + virus, 1 minute, dilution factor 10^2, third experiment) was “+”. For the same compound, the “CPE test (virus replication in cell wells)” value ([2]; 0.2 mM EGCG + virus, 1 minute, dilution factor 10^3, second experiment) was “+”, the “CPE test (virus replication in cell wells)” value ([2]; 0.2 mM EGCG + virus, 1 minute, dilution factor 10^3, third experiment) was “+” and the “CPE test (virus replication in cell wells)” value ([2]; 0.2 mM EGCG + virus, 1 minute, dilution factor 10^4, second experiment) was “+”. For the same compound, the “CPE test (virus replication in cell wells)” value ([2]; 0.2 mM EGCG + virus, 1 minute, dilution factor 10^4, third experiment) was “+”, the “CPE test (virus replication in cell wells)” value ([2]; 0.2 mM EGCG + virus, 1 minute, dilution factor 10^5, second experiment) was “+” and the “CPE test (virus replication in cell wells)” value ([2]; 0.2 mM EGCG + virus, 1 minute, dilution factor 10^5, third experiment) was “+”. For the same compound, the “CPE test (virus replication in cell wells)” value ([2]; 0.2 mM EGCG + virus, 1 minute, dilution factor 10^6, second experiment) was “− and +”, the “CPE test (virus replication in cell wells)” value ([2]; 0.2 mM EGCG + virus, 1 minute, dilution factor 10^6, third experiment) was “− and +” and the “CPE test (virus replication in cell wells)” value ([2]; 0.2 mM EGCG + virus, 1 minute, dilution factor 10^7, second experiment) was “− and +”. The “CPE test (virus replication in cell wells)” value ([2]; 0.2 mM EGCG + virus, 1 minute, dilution factor 10^7, third experiment) was “− and +”, the “CPE test (virus replication in cell wells)” value ([2]; 0.2 mM EGCG + virus, 1 minute, dilution factor 10^8, second experiment) was “−” and the “CPE test (virus replication in cell wells)” value ([2]; 0.2 mM EGCG + virus, 1 minute, dilution factor 10^8, third experiment) was “−”. For the same compound, the “CPE test (virus replication in the cell wells)” value ([2]; 0.2 mM EGCG + virus, co-incubated 5 minute, dilution factor 10^1, first experiment) was “+”, the “CPE test (virus replication in the cell wells)” value ([2]; 0.2 mM EGCG + virus, co-incubated 5 minute, dilution factor 10^1, second experiment) was “+” and the “CPE test (virus replication in the cell wells)” value ([2]; 0.2 mM EGCG + virus, co-incubated 5 minute, dilution factor 10^2, first experiment) was “+”. For the same compound, the “CPE test (virus replication in the cell wells)” value ([2]; 0.2 mM EGCG + virus, co-incubated 5 minute, dilution factor 10^2, second experiment) was “+”, the “CPE test (virus replication in the cell wells)” value ([2]; 0.2 mM EGCG + virus, co-incubated 5 minute, dilution factor 10^3, first experiment) was “+” and the “CPE test (virus replication in the cell wells)” value ([2]; 0.2 mM EGCG + virus, co-incubated 5 minute, dilution factor 10^3, second experiment) was “+”. The “CPE test (virus replication in the cell wells)” value ([2]; 0.2 mM EGCG + virus, co-incubated 5 minute, dilution factor 10^4, first experiment) was “+”, the “CPE test (virus replication in the cell wells)” value ([2]; 0.2 mM EGCG + virus, co-incubated 5 minute, dilution factor 10^4, second experiment) was “+” and the “CPE test (virus replication in the cell wells)” value ([2]; 0.2 mM EGCG + virus, co-incubated 5 minute, dilution factor 10^5, first experiment) was “+”. The “CPE test (virus replication in the cell wells)” value ([2]; 0.2 mM EGCG + virus, co-incubated 5 minute, dilution factor 10^5, second experiment) was “+”, the “CPE test (virus replication in the cell wells)” value ([2]; 0.2 mM EGCG + virus, co-incubated 5 minute, dilution factor 10^6, first experiment) was “− and +” and the “CPE test (virus replication in the cell wells)” value ([2]; 0.2 mM EGCG + virus, co-incubated 5 minute, dilution factor 10^6, second experiment) was “+ and −”. For the same compound, the “CPE test (virus replication in the cell wells)” value ([2]; 0.2 mM EGCG + virus, co-incubated 5 minute, dilution factor 10^7, first experiment) was “−”, the “CPE test (virus replication in the cell wells)” value ([2]; 0.2 mM EGCG + virus, co-incubated 5 minute, dilution factor 10^7, second experiment) was “−” and the “CPE test (virus replication in the cell wells)” value ([2]; 0.2 mM EGCG + virus, co-incubated 5 minute, dilution factor 10^8, first experiment) was “−”. The “CPE test (virus replication in the cell wells)” value ([2]; 0.2 mM EGCG + virus, co-incubated 5 minute, dilution factor 10^8, second experiment) was “−”, the “average inactivation efficiency against virus” value ([2]; 1 minute) was 12.30% and the “average inactivation efficiency against virus” value ([2]; 5 minutes) was 35.78%. The “CPE test per cell well” value ([2]; 1 mM EGCG + EV-D68 virus, 1 minute, dilution factor 10^1, wells 1-10) was “+”, the “CPE test per cell well” value ([2]; 1 mM EGCG + EV-D68 virus, 1 minute, dilution factor 10^2, wells 1-10) was “+” and the “CPE test per cell well” value ([2]; 1 mM EGCG + EV-D68 virus, 1 minute, dilution factor 10^3, wells 1-10) was “+”. The “CPE test per cell well” value ([2]; 1 mM EGCG + EV-D68 virus, 1 minute, dilution factor 10^4, wells 1-10) was “+”, the “CPE test per cell well” value ([2]; 1 mM EGCG + EV-D68 virus, 1 minute, dilution factor 10^5, wells 1-10) was “+” and the “CPE test per cell well” value ([2]; 1 mM EGCG + EV-D68 virus, 1 minute, dilution factor 10^6, wells 1-10) was “+ and −”. The “CPE test per cell well” value ([2]; 1 mM EGCG + EV-D68 virus, 1 minute, dilution factor 10^7, wells 1-10) was “−”, the “CPE test per cell well” value ([2]; 1 mM EGCG + EV-D68 virus, 1 minute, dilution factor 10^8, wells 1-10) was “−” and the “CPE test (virus replication in cell wells)” value ([2]; 1 mM EGCG + EV-D68 virus, co-incubated 5 minute, third experiment, dilution factor 10^1) was “+”. The “CPE test (virus replication in cell wells)” value ([2]; 1 mM EGCG + EV-D68 virus, co-incubated 5 minute, third experiment, dilution factor 10^2) was “+”, the “CPE test (virus replication in cell wells)” value ([2]; 1 mM EGCG + EV-D68 virus, co-incubated 5 minute, third experiment, dilution factor 10^3) was “+” and the “CPE test (virus replication in cell wells)” value ([2]; 1 mM EGCG + EV-D68 virus, co-incubated 5 minute, third experiment, dilution factor 10^4) was “+”. For the same compound, the “CPE test (virus replication in cell wells)” value ([2]; 1 mM EGCG + EV-D68 virus, co-incubated 5 minute, third experiment, dilution factor 10^5) was “+”, the “CPE test (virus replication in cell wells)” value ([2]; 1 mM EGCG + EV-D68 virus, co-incubated 5 minute, third experiment, dilution factor 10^6) was “+ and −” and the “CPE test (virus replication in cell wells)” value ([2]; 1 mM EGCG + EV-D68 virus, co-incubated 5 minute, third experiment, dilution factor 10^7) was “−”. For the same compound, the “CPE test (virus replication in cell wells)” value ([2]; 1 mM EGCG + EV-D68 virus, co-incubated 5 minute, third experiment, dilution factor 10^8) was “−”, the “CPE test (virus replication in cell wells)” value ([2]; 1 mM EGCG + virus, 1 minute, dilution factor 10^1, second experiment) was “+” and the “CPE test (virus replication in cell wells)” value ([2]; 1 mM EGCG + virus, 1 minute, dilution factor 10^1, third experiment) was “+”. For the same compound, the “CPE test (virus replication in cell wells)” value ([2]; 1 mM EGCG + virus, 1 minute, dilution factor 10^2, second experiment) was “+”, the “CPE test (virus replication in cell wells)” value ([2]; 1 mM EGCG + virus, 1 minute, dilution factor 10^2, third experiment) was “+” and the “CPE test (virus replication in cell wells)” value ([2]; 1 mM EGCG + virus, 1 minute, dilution factor 10^3, second experiment) was “+”. The “CPE test (virus replication in cell wells)” value ([2]; 1 mM EGCG + virus, 1 minute, dilution factor 10^3, third experiment) was “+”, the “CPE test (virus replication in cell wells)” value ([2]; 1 mM EGCG + virus, 1 minute, dilution factor 10^4, second experiment) was “+” and the “CPE test (virus replication in cell wells)” value ([2]; 1 mM EGCG + virus, 1 minute, dilution factor 10^4, third experiment) was “+”. The “CPE test (virus replication in cell wells)” value ([2]; 1 mM EGCG + virus, 1 minute, dilution factor 10^5, second experiment) was “+”, the “CPE test (virus replication in cell wells)” value ([2]; 1 mM EGCG + virus, 1 minute, dilution factor 10^5, third experiment) was “+” and the “CPE test (virus replication in cell wells)” value ([2]; 1 mM EGCG + virus, 1 minute, dilution factor 10^6, second experiment) was “+ and −”. For the same compound, the “CPE test (virus replication in cell wells)” value ([2]; 1 mM EGCG + virus, 1 minute, dilution factor 10^6, third experiment) was “+ and −”.

— patent US20240238242A1, “EGCG buccal tablet and use thereof” (priority 2023, published 2024)
